From patent publication US9683014B2, “Dipeptide mimetics of NGF and BDNF neurotrophins” (UCHREZHDENIE ROSSIISKOI AKADEMII MEDITSYNSKIKH NAUK …, priority 2009, dated 2017)
Where “and” joins values, the source holds several entries; their conditions need not be identical. Identical values can stand only once. Like-named read-outs stand apart in the source and are kept apart here.

How the values were obtained:
HT-22 cells = experiment: Oxidative stress (H2O2) model in cultured HT-22 cells (MTT test); type: cell-based, mouse
Method: To induce an oxidative stress, the cells were placed in a growth medium containing 5% FBS, then a freshly prepared H2O2 solution was added to a final concentration of 1.5 mM and incubated for 30 min at 37° C. and 5% CO2. Thereafter, the medium was replaced with a new one and the cells were cultured for 4 h under the same conditions.
The determination of cell viability was carried out by MTT test. […] At the end of an experiment the growth medium was replaced with an MTT solution (0.5 mg/ml) and incubated for 30 min at 37° C. and 5% CO2. The MTT solution was then removed from the wells and DMSO was added to dissolve the formazan precipitate. Then the optical density was measured using a Multiscan (Thermo) spectrophotometer at a wavelength of 600 nm.

PC12 cell line = experiment: Cellular model of Parkinson's disease (MPTP, MTT test); type: cell-based, rat
Method: To produce a model for Parkinson's disease, MPTP was used at a final concentration of 1 mM (Shimoke K., Chiba H. Nerve growth factor prevents 1-methyl-[…]-1,2,3,6-tetrahydropyridine-induced cell death via the Akt pathway by suppressing caspase-3-like activity using PC12 cells: relevance to therapeutic application for Parkinson's disease. J. Neurosci. Res. 2001, 63, 402-409). MPTP was added to the cell growth medium containing 1% FBS at 24 hours after passage. The peptides were added to the cell growth medium concurrently with MPTP or 24 h before MPTP. Cell viability was determined at 24 h using an MTT test.

Wistar rats = settings: 1.0 mg/kg i.p. 24 h prior to scopolamine 1.0 mg/kg s.c.; FIG. 2.11
Method: Male Wistar rats weighing 190-220 g were used for this experiment. The test compound was administered intraperitoneally at a dose of 1.0 mg/kg at 24 hours prior to the scopolamine injection (1.0 mg/kg s.c.). The control group was treated with distilled water according to the same regimen. Scopolamine was injected 60 min before placing the animals in a T-shaped maze. Following a further 120 min the animals were subjected to testing in accordance with the original protocol (Deacon R. M. J., Rawlins J. N. P. T-maze alternation in the rodent. Nature Protocols, 2006, 1(1), 7-12).

[1] = tested on: rats with ischemic cerebral infarction

## NCCCC[C@H](NC(=O)[C@H](CCC(=O)O)NC(=O)CCC(=O)O)C(=O)NCCCCCCNC(=O)[C@H](CCCCN)NC(=O)[C@H](CCC(=O)O)NC(=O)CCC(=O)O [GK-2, bis-(N-monosuccinyl-glutamyl-lysine) hexamethylenediamide]
HT-22 cells
  Optical density (MTT): 0.324 ± 0.070^ and 0.345 ± 0.065^
HT-22 cells; 10^−8 M to 10^−5 M
  effect when added immediately after the oxidative stress exposure: therapeutic effect
HT-22 cells; Table 1.4, 10^−5M, 24 h before H2O2, control 0.427 ± 0.071, H2O2 0.350 ± 0.052
  Optical density (MTT): 0.422 ± 0.063^
HT-22 cells; Table 1.4, 10^−8M, 24 h before H2O2, control 0.427 ± 0.071, H2O2 0.350 ± 0.052
  Optical density (MTT): 0.501 ± 0.109^
HT-22 cells; Table 1.4, 10^−9M, 24 h before H2O2, control 0.427 ± 0.071, H2O2 0.350 ± 0.052
  Optical density (MTT): 0.516 ± 0.068^
HT-22 cells; added 24 hours prior to the stress exposure, 10^−8 M to 10^−5 M
  neuronal survival under oxidative stress: improved the neuronal survival
PC12 cell line; added 24 hours prior to MPTP 1 mM
  protective effect against MPTP: active at both 10^−5 M and 10^−8 M
PC12 cell line; added concurrently with MPTP 1 mM, 10^−5 M and 10^−8 M tested
  protective effect against MPTP: only at 10^−5 M
Wistar rats
  scopolamine-induced working memory impairment (spontaneous alternation, T-maze): could prevent
[1]; 1 mg/kg i.p. at 1, 24, 48 h post-ischemia, NMRT day 7, control group 46%
  animals with swelling of the affected hemisphere: 9%
[1]; 1 mg/kg i.p. at 1, 24, 48 h post-ischemia, control also 3
  mortality rate: 3 animals
[1]; 1 mg/kg i.p. x3, NMRT day 7, n=12, saline control 266±20
  ischemic lesion volume: 222±16 mm^3
[1]; 1 mg/kg i.p. x3, versus saline control
  reduction of lesion volume: 16.5%
